Test results published in the supplement of paper PMC10307832.

Legend:
Experiment in all cases: relative viability (nuclei count vs DMSO), 5 days (fraction); higher = more cells survive
[1] = compound: CCN(CCO)CCCC(C)Nc1ccnc2cc(Cl)ccc12 [Hydroxychloroquine] + CC(=O)c1c(C)c2cnc(Nc3ccc(N4CCNCC4)cn3)nc2n(C2CCCC2)c1=O [Palbociclib] (partner 0.5 µM)
Method in brief: (§1)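 Dosing by pin tool came one day after lung cancer cell lines were seeded in 1536-well plates, using either one drug or a fixed anchor-drug dose plus five library-drug doses (not always all listed) in √10 steps. After 5 days, nuclei were counted on 4× images. Relative viability is treated-well nuclei count divided by vehicle-well nuclei count, and values are medians of duplicate plates.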

[2] = compound: CCN(CCO)CCCC(C)Nc1ccnc2cc(Cl)ccc12 [Hydroxychloroquine] + Cc1nc(NC(=O)N2CCC[C@H]2C(N)=O)sc1-c1ccnc(C(C)(C)C(F)(F)F)c1 [Alpelisib] (partner 2 µM)
Method in brief: as §1

[3] = compound: CCN(CCO)CCCC(C)Nc1ccnc2cc(Cl)ccc12 [Hydroxychloroquine] + Nc1nc2[nH]cc(CCc3ccc(C(=O)N[C@@H](CCC(=O)O)C(=O)O)cc3)c2c(=O)[nH]1 [Pemetrexed] (partner 0.2 µM)
Method in brief: as §1

[4] = compound: CCN(CCO)CCCC(C)Nc1ccnc2cc(Cl)ccc12 [Hydroxychloroquine] + O=C(c1cc(Cc2n[nH]c(=O)c3ccccc23)ccc1F)N1CCN(C(=O)C2CC2)CC1 [Olaparib] (partner 8 µM)
Method in brief: as §1

## NCI-H3122
[1]; first compound 0.5 µM
  relative viability: 0.208
[1]; first compound 1.581 µM
  relative viability: 0.193
[1]; first compound 5 µM
  relative viability: 0.194
[1]; first compound 15.81 µM
  relative viability: 0.234
[1]; first compound 50 µM
  relative viability: 0.21
[2]; first compound 0.5 µM
  relative viability: 0.798
[2]; first compound 1.581 µM
  relative viability: 0.736
[2]; first compound 5 µM
  relative viability: 0.822
[2]; first compound 15.81 µM
  relative viability: 0.779
[2]; first compound 50 µM
  relative viability: 0.8
[3]; first compound 0.5 µM
  relative viability: 0.189
[3]; first compound 1.581 µM
  relative viability: 0.205
[3]; first compound 5 µM
  relative viability: 0.359
[3]; first compound 15.81 µM
  relative viability: 0.188
[3]; first compound 50 µM
  relative viability: 0.199
[4]; first compound 0.5 µM
  relative viability: 0.623
[4]; first compound 1.581 µM
  relative viability: 0.646
[4]; first compound 5 µM
  relative viability: 0.676
[4]; first compound 15.81 µM
  relative viability: 0.664
[4]; first compound 50 µM
  relative viability: 0.729

## PC-3 [JPC-3]
[1]; first compound 0.5 µM
  relative viability: 0.538
[1]; first compound 1.581 µM
  relative viability: 0.576
[1]; first compound 5 µM
  relative viability: 0.59
[1]; first compound 15.81 µM
  relative viability: 0.561
[1]; first compound 50 µM
  relative viability: 0.511
[2]; first compound 0.5 µM
  relative viability: 1.01
[2]; first compound 1.581 µM
  relative viability: 1.04
[2]; first compound 5 µM
  relative viability: 1.06
[2]; first compound 15.81 µM
  relative viability: 1
[2]; first compound 50 µM
  relative viability: 1.02
[3]; first compound 0.5 µM
  relative viability: 1.09
[3]; first compound 1.581 µM
  relative viability: 1.2
[3]; first compound 5 µM
  relative viability: 1.01
[3]; first compound 15.81 µM
  relative viability: 0.323
[3]; first compound 50 µM
  relative viability: 0.842
[4]; first compound 0.5 µM
  relative viability: 1.23
[4]; first compound 1.581 µM
  relative viability: 1.14
[4]; first compound 5 µM
  relative viability: 1.09
[4]; first compound 15.81 µM
  relative viability: 1.2
[4]; first compound 50 µM
  relative viability: 1.16

## PC-14
[1]; first compound 0.5 µM
  relative viability: 0.481
[1]; first compound 1.581 µM
  relative viability: 0.545
[1]; first compound 5 µM
  relative viability: 0.535
[1]; first compound 15.81 µM
  relative viability: 0.554
[1]; first compound 50 µM
  relative viability: 0.394
[2]; first compound 0.5 µM
  relative viability: 0.782
[2]; first compound 1.581 µM
  relative viability: 0.858
[2]; first compound 5 µM
  relative viability: 0.951
[2]; first compound 15.81 µM
  relative viability: 0.892
[2]; first compound 50 µM
  relative viability: 1.01
[3]; first compound 0.5 µM
  relative viability: 0.149
[3]; first compound 1.581 µM
  relative viability: 0.145
[3]; first compound 5 µM
  relative viability: 0.118
[3]; first compound 15.81 µM
  relative viability: 0.142
[3]; first compound 50 µM
  relative viability: 0.129
[4]; first compound 0.5 µM
  relative viability: 0.31
[4]; first compound 1.581 µM
  relative viability: 0.28
[4]; first compound 5 µM
  relative viability: 0.276
[4]; first compound 15.81 µM
  relative viability: 0.25
[4]; first compound 50 µM
  relative viability: 0.285

## RERF-LC-KJ
[1]; first compound 0.5 µM
  relative viability: 0.838
[1]; first compound 1.581 µM
  relative viability: 1.16
[1]; first compound 5 µM
  relative viability: 1.03
[1]; first compound 15.81 µM
  relative viability: 1.12
[1]; first compound 50 µM
  relative viability: 1.06
[2]; first compound 0.5 µM
  relative viability: 0.778
[2]; first compound 1.581 µM
  relative viability: 0.697
[2]; first compound 5 µM
  relative viability: 0.732
[2]; first compound 15.81 µM
  relative viability: 0.879
[2]; first compound 50 µM
  relative viability: 0.852
[3]; first compound 0.5 µM
  relative viability: 0.448
[3]; first compound 1.581 µM
  relative viability: 0.466
[3]; first compound 5 µM
  relative viability: 0.457
[3]; first compound 15.81 µM
  relative viability: 0.489
[3]; first compound 50 µM
  relative viability: 0.467
[4]; first compound 0.5 µM
  relative viability: 0.917
[4]; first compound 1.581 µM
  relative viability: 0.948
[4]; first compound 5 µM
  relative viability: 0.896
[4]; first compound 15.81 µM
  relative viability: 0.846
[4]; first compound 50 µM
  relative viability: 0.933

## SK-LU-1
[1]; first compound 0.5 µM
  relative viability: 0.381
[1]; first compound 1.581 µM
  relative viability: 0.382
[1]; first compound 5 µM
  relative viability: 0.432
[1]; first compound 15.81 µM
  relative viability: 0.361
[1]; first compound 50 µM
  relative viability: 0.431
[2]; first compound 0.5 µM
  relative viability: 0.964
[2]; first compound 1.581 µM
  relative viability: 0.852
[2]; first compound 5 µM
  relative viability: 1.05
[2]; first compound 15.81 µM
  relative viability: 1.06
[2]; first compound 50 µM
  relative viability: 1.03
[3]; first compound 0.5 µM
  relative viability: 1.02
[3]; first compound 1.581 µM
  relative viability: 0.876
[3]; first compound 5 µM
  relative viability: 0.953
[3]; first compound 15.81 µM
  relative viability: 1.11
[3]; first compound 50 µM
  relative viability: 1.03
[4]; first compound 0.5 µM
  relative viability: 0.45
[4]; first compound 1.581 µM
  relative viability: 0.425
[4]; first compound 5 µM
  relative viability: 0.491
[4]; first compound 15.81 µM
  relative viability: 0.426
[4]; first compound 50 µM
  relative viability: 0.445

## SK-MES-1
[1]; first compound 0.5 µM
  relative viability: 0.365
[1]; first compound 1.581 µM
  relative viability: 0.319
[1]; first compound 5 µM
  relative viability: 0.332
[1]; first compound 15.81 µM
  relative viability: 0.368
[1]; first compound 50 µM
  relative viability: 0.343
[2]; first compound 0.5 µM
  relative viability: 0.697
[2]; first compound 1.581 µM
  relative viability: 0.765
[2]; first compound 5 µM
  relative viability: 1.01
[2]; first compound 15.81 µM
  relative viability: 0.952
[2]; first compound 50 µM
  relative viability: 0.929
[3]; first compound 0.5 µM
  relative viability: 1.03
[3]; first compound 1.581 µM
  relative viability: 0.73
[3]; first compound 5 µM
  relative viability: 1.02
[3]; first compound 15.81 µM
  relative viability: 1.05
[3]; first compound 50 µM
  relative viability: 0.945
[4]; first compound 0.5 µM
  relative viability: 0.812
[4]; first compound 1.581 µM
  relative viability: 0.683
[4]; first compound 5 µM
  relative viability: 0.724
[4]; first compound 15.81 µM
  relative viability: 0.738
[4]; first compound 50 µM
  relative viability: 0.671

## SW 1573
[1]; first compound 0.5 µM
  relative viability: 0.369
[1]; first compound 1.581 µM
  relative viability: 0.359
[1]; first compound 5 µM
  relative viability: 0.374
[1]; first compound 15.81 µM
  relative viability: 0.34
[1]; first compound 50 µM
  relative viability: 0.38
[2]; first compound 0.5 µM
  relative viability: 0.703
[2]; first compound 1.581 µM
  relative viability: 0.767
[2]; first compound 5 µM
  relative viability: 0.893
[2]; first compound 15.81 µM
  relative viability: 0.796
[2]; first compound 50 µM
  relative viability: 0.826
[3]; first compound 0.5 µM
  relative viability: 0.892
[3]; first compound 1.581 µM
  relative viability: 0.686
[3]; first compound 5 µM
  relative viability: 0.794
[3]; first compound 15.81 µM
  relative viability: 0.86
[3]; first compound 50 µM
  relative viability: 0.758
[4]; first compound 0.5 µM
  relative viability: 0.504
[4]; first compound 1.581 µM
  relative viability: 0.484
[4]; first compound 5 µM
  relative viability: 0.432
[4]; first compound 15.81 µM
  relative viability: 0.472
[4]; first compound 50 µM
  relative viability: 0.458

## UMC-11
[1]; first compound 0.5 µM
  relative viability: 0.285
[1]; first compound 1.581 µM
  relative viability: 0.304
[1]; first compound 5 µM
  relative viability: 0.413
[1]; first compound 15.81 µM
  relative viability: 0.311
[1]; first compound 50 µM
  relative viability: 0.305
[2]; first compound 0.5 µM
  relative viability: 0.841
[2]; first compound 1.581 µM
  relative viability: 0.956
[2]; first compound 5 µM
  relative viability: 0.962
[2]; first compound 15.81 µM
  relative viability: 1.06
[2]; first compound 50 µM
  relative viability: 1.2
[3]; first compound 0.5 µM
  relative viability: 0.751
[3]; first compound 1.581 µM
  relative viability: 0.751
[3]; first compound 5 µM
  relative viability: 0.826
[3]; first compound 15.81 µM
  relative viability: 0.976
[3]; first compound 50 µM
  relative viability: 0.825
[4]; first compound 0.5 µM
  relative viability: 0.342
[4]; first compound 1.581 µM
  relative viability: 0.325
[4]; first compound 5 µM
  relative viability: 0.365
[4]; first compound 15.81 µM
  relative viability: 0.366
[4]; first compound 50 µM
  relative viability: 0.353
